Values quoted from earlier work as cited in patent US8784850B2, “Highly biocompatible dual thermogelling chitosan/glucosamine salt composition” (Oligo Médic Inc., priority 2010, dated 2014).

Key:
rats [1] = details: ingestion of 300 to 2149 mg/kg of body weight
rats [2] = details: rat, in vivo, po
[3] = system: human blood glucose metabolism; details: human studies
rabbits [4] = details: ingestion of 300 to 2149 mg/kg of body weight
[5] = system: patients with osteoarthritis pain; details: oral administration, more than 3000 patients
mice = details: mouse, in vivo, po
rabbits [6] = details: rabbit, in vivo, po
dogs = details: ingestion of 300 to 2149 mg/kg of body weight
[7] = system: outpatients with gonarthrosis
[8] = intra-articular, after treatment
[9] = intra-articular, versus placebo

SMILES: N[C@H]1C(O)O[C@H](CO)[C@@H](O)[C@@H]1O (stereo partly drawn) [glucosamine]
- blood glucose levels (rats [1]): no effect on blood glucose levels
- LD50 (rats [2]): exceed 5000 mg/kg
- plasma levels of glucose or insulin, insulin sensitivity or glucose oxidation [3]: did not affect
- blood glucose levels (rabbits [4]): no effect on blood glucose levels
- adverse effects on blood, urine or fecal parameters [5]: no adverse effects
- effectiveness in treating osteoarthritis pain [5]: moderately to highly effective
- LD50 (mice): > 8000 mg/kg
- LD50 (rabbits [6]): > 8000 mg/kg
- blood glucose levels (dogs): no effect on blood glucose levels
- local or general intolerance symptoms ([7]; during and after treatment): no local or general intolerance symptoms
- angle of joint flexion [7, 8]: substantially increased
- knee swelling [7, 8]: did not decrease significantly
- active mobility [7, 9]: a more favourable trend after glucosamine administration
- pain-free patients [7, 9]: significantly more pain-free patients
- pain ([7]; one intra-articular injection per week for five weeks, versus placebo): reduced pain to a significantly greater extent than did placebo
